Experimental data taken from patent US20250249025A1, “DRUG DELIVERY CARRIER UTILIZING PROPERTY OF D-ALLOSE BEING UPTAKEN BY CANCER CELL, DRUG DELIVERY METHOD, AND COMPOSITION FOR TREATING RENAL CELL CARCINOMA” (NATIONAL UNIVERSITY CORPORATION KAGAWA UNIVERSITY, priority 2019, published 2025).

Key:
Assay type in all cases: cell-based
[1] = tested on: human bladder carcinoma cell line RT112; assay: Rare sugar uptake experiment, sugar content in disrupted cell suspension of RT112; conditions: RT112, 48 hours; for D-glucose content in cell: named sugar added to RPMI-1640 at 10 mM, HPLC after ABEE labeling
Method: (§1) An uptake amount of a rare sugar, which had been added to a medium, into carcinoma cells was analyzed using the cell lines of three types of cancers. As the rare sugar, four kinds, that is, D-allose, D-allulose (D-psicose), L-allulose (L-psicose), and allitol were used, while D-glucose and fructose were used as a monosaccharide which was not a rare sugar.
(§2) Cells of each of the cell lines were cultured in RPMI-1640 media and during culturing, six sugars were each added to the resulting media and cultured. After culturing, an amount of each sugar taken up into the cells was analyzed. The medium to which no sugar was added during culturing was used as a control.
(§3) Used were human bladder carcinoma cell lines (RT112, 253), and J82), human prostatic carcinoma cell lines (LNCa, Du145, and PC-3), and human renal cell carcinoma cell lines (ACHN, Caki-I, and Caki-II).
(§4) After cells were cultured in RPMI-1640 (2000 mg D-glucose/L) media, the above monosaccharides and rare sugars were added to the resulting media, respectively. Described specifically, they were following seven combinations: RPMI-1640 alone (control), RPMI-1640+D-glucose, RPMI-1640+L-allulose, RPMI-1640+D-allulose, RPMI-1640+D-fructose, RPMI-1640+D-allose, and RPMI-1640+D-allitol. The final concentration of the sugar in the medium was adjusted to 10 mM and no sugar was added in the control.
(§5) Five-ml portions of a 3.0×10^4 cells/ml cell suspension prepared using RPMI-1640 were seeded in dishes having a diameter of 6 cm (1.5×10^5 cells/dish) and cultured for 24 hours in the RPMI-1640 medium containing 2000 mg/l of D-glucose as a nutrient source. Twenty-four hours later, the media were changed to the culture solutions containing the monosaccharides and rare sugars described above in 2), respectively, followed by culturing for 48 hours.
(§6) After culturing for 48 hours, the attached human carcinoma cells were mechanically separated and collected in a Spitz tube together with the culture solution and floating cells. After the supernatant formed by centrifugation (4° C., 1200 rpm, and 5 minutes) was removed to obtain cell pellets alone, 5 ml of a phosphate buffer physiological saline (PBS) was added for the purpose of washing to obtain a cell suspension of the cell pellets. A gain, the resulting cell suspension was centrifuged at 4° C. and 1200 rpm for 5 minutes and the supernatant was removed. To the cell pellets after washing was added 1 ml of pure water to suspend them therein. Ultrasonic disruption (intensity: 40%, 30 seconds) was then performed and the monosaccharide in the disrupted cell suspension was labeled with ABEE, followed by analysis by HPLC. From the area thus obtained, the sugar content in the cells was determined using a calibration curve. With respect to the ketose, two peaks were found after labeling with ABEE so that the sugar content in the cells was determined from the calibration curves of both peaks.

[2] = tested on: human bladder carcinoma cell line 253J; assay: Rare sugar uptake experiment, sugar content in disrupted cell suspension of 253J; conditions: 253J, 48 hours; for D-glucose content in cell: named sugar added to RPMI-1640 at 10 mM, HPLC after ABEE labeling
Method: as §1, §2, §3, §4, §5, §6

[3] = tested on: human bladder carcinoma cell line J82; assay: Rare sugar uptake experiment, sugar content in disrupted cell suspension of J82; conditions: J82, 48 hours; for D-glucose content in cell: named sugar added to RPMI-1640 at 10 mM, HPLC after ABEE labeling
Method: as §1, §2, §3, §4, §5, §6

[4] = tested on: human prostate carcinoma cell line LNCa; assay: Rare sugar uptake experiment, sugar content in disrupted cell suspension of LNCa; conditions: LNCa, 48 hours; for D-glucose content in cell: named sugar added to RPMI-1640 at 10 mM, HPLC after ABEE labeling
Method: as §1, §2, §3, §4, §5, §6

[5] = tested on: human prostate carcinoma cell line Du145; assay: Rare sugar uptake experiment, sugar content in disrupted cell suspension of Du145; conditions: Du145, 48 hours; for D-glucose content in cell: named sugar added to RPMI-1640 at 10 mM, HPLC after ABEE labeling
Method: as §1, §2, §3, §4, §5, §6

[6] = tested on: human prostate carcinoma cell line PC-3; assay: Rare sugar uptake experiment, sugar content in disrupted cell suspension of PC-3; conditions: PC-3, 48 hours; for D-glucose content in cell: named sugar added to RPMI-1640 at 10 mM, HPLC after ABEE labeling
Method: as §1, §2, §3, §4, §5, §6

[7] = tested on: human renal cell carcinoma cell line ACHN; assay: Rare sugar uptake experiment, sugar content in disrupted cell suspension of ACHN; conditions: ACHN, 48 hours; for D-glucose content in cell: named sugar added to RPMI-1640 at 10 mM, HPLC after ABEE labeling
Method: as §1, §2, §3, §4, §5, §6

[8] = tested on: human renal cell carcinoma cell line Caki-I; assay: Rare sugar uptake experiment, sugar content in disrupted cell suspension of Caki-I; conditions: Caki-I, 48 hours; for D-glucose content in cell: named sugar added to RPMI-1640 at 10 mM, HPLC after ABEE labeling
Method: as §1, §2, §3, §4, §5, §6

[9] = tested on: human renal cell carcinoma cell line Caki-II; assay: Rare sugar uptake experiment, sugar content in disrupted cell suspension of Caki-II; conditions: Caki-II, 48 hours; for D-glucose content in cell: named sugar added to RPMI-1640 at 10 mM, HPLC after ABEE labeling
Method: as §1, §2, §3, §4, §5, §6

[10] = sugar added to RPMI-1640 at 10 mM, ketoses: range from two peaks

SMILES: O=C(CO)[C@H](O)[C@H](O)[C@H](O)CO [D-allulose]
- D-glucose content in cell [1]: 3.4 µg
- D-glucose content in cell [2]: 0.6 µg
- D-glucose content in cell [3]: 2.1 µg
- D-glucose content in cell [4]: 7.5 µg
- D-glucose content in cell [5]: 3.9 µg
- D-glucose content in cell [6]: 1.6 µg
- D-glucose content in cell [7]: 1.9 µg
- D-glucose content in cell [8]: 2.3 µg
- D-glucose content in cell [9]: 3.1 µg

SMILES: O=C(CO)[C@@H](O)[C@H](O)[C@H](O)CO [D-fructose]
- D-glucose content in cell [1]: 4.4 µg
- Content in cell of the added sugar [1, 10]: 12.7 to 15.7 µg
- D-glucose content in cell [2]: 3.3 µg
- Content in cell of the added sugar [2, 10]: 0.0 µg
- D-glucose content in cell [3]: 2.7 µg
- Content in cell of the added sugar [3, 10]: 11.1 to 15.0 µg
- D-glucose content in cell [4]: 4.1 µg
- Content in cell of the added sugar [4, 10]: 0.0 µg
- D-glucose content in cell [5]: 4.2 µg
- Content in cell of the added sugar [5, 10]: 12.9 to 17.0 µg
- D-glucose content in cell [6]: 2.7 µg
- Content in cell of the added sugar [6, 10]: 16.5 to 20.1 µg
- D-glucose content in cell [7]: 2.1 µg
- Content in cell of the added sugar [7, 10]: 16.8 to 19.0 µg
- D-glucose content in cell [8]: 2.5 µg
- Content in cell of the added sugar [8, 10]: 16.7 to 20.7 µg
- D-glucose content in cell [9]: 3.6 µg
- Content in cell of the added sugar [9, 10]: 20.4 to 21.3 µg

SMILES: O=C[C@H](O)[C@@H](O)[C@H](O)[C@H](O)CO [D-glucose]
- D-glucose content in cell [1]: 16.7 µg
- D-glucose content in cell [2]: 4.0 µg
- D-glucose content in cell [3]: 7.2 µg
- D-glucose content in cell [4]: 6.5 µg
- D-glucose content in cell [5]: 4.4 µg
- D-glucose content in cell [6]: 6.7 µg
- D-glucose content in cell [7]: 5.6 µg
- D-glucose content in cell [8]: 4.4 µg
- D-glucose content in cell [9]: 8.4 µg

SMILES: O=C(CO)[C@@H](O)[C@@H](O)[C@@H](O)CO [L-allulose]
- D-glucose content in cell [1]: 3.9 µg
- D-glucose content in cell [2]: 0.5 µg
- D-glucose content in cell [3]: 1.9 µg
- D-glucose content in cell [4]: 10.2 µg
- D-glucose content in cell [5]: 2.5 µg
- D-glucose content in cell [6]: 1.5 µg
- D-glucose content in cell [7]: 2.1 µg
- D-glucose content in cell [8]: 2.3 µg
- D-glucose content in cell [9]: 1.7 µg

SMILES: OC[C@@H](O)[C@@H](O)[C@@H](O)[C@@H](O)CO [allitol]
- D-glucose content in cell [1]: 3.6 µg
- D-glucose content in cell [2]: 0.5 µg
- D-glucose content in cell [3]: 2.4 µg
- D-glucose content in cell [4]: 9.2 µg
- D-glucose content in cell [5]: 4.5 µg
- D-glucose content in cell [6]: 2.1 µg
- D-glucose content in cell [7]: 1.8 µg
- D-glucose content in cell [8]: 2.4 µg
- D-glucose content in cell [9]: 4.3 µg
